From PubChem BioAssay (NCI)
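Compound exposure: 48 hours, 5 concentrations, 96-well plates. Definition used: TGI = concentration required for complete inhibition of growth.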

Assays:
Test in all cases: growth of human tumour cells (NCI), 48 h
UO-31 renal = test system: UO-31 renal
SK-OV-3 ovarian = test system: SK-OV-3 ovarian
LOX IMVI melanoma = test system: LOX IMVI melanoma
SF-539 CNS = test system: SF-539 CNS
CCRF-CEM leukemia = test system: CCRF-CEM leukemia
SK-MEL-2 melanoma = test system: SK-MEL-2 melanoma
M14 melanoma = test system: M14 melanoma
SNB-75 CNS = test system: SNB-75 CNS
MOLT-4 leukemia = test system: MOLT-4 leukemia
T-47D breast = test system: T-47D breast

Structure (SMILES) | TGI (UO-31 renal) [µM] | TGI (SK-OV-3 ovarian) [µM] | TGI (LOX IMVI melanoma) [µM] | TGI (SF-539 CNS) [µM] | TGI (CCRF-CEM leukemia) [µM] | TGI (SK-MEL-2 melanoma) [µM] | TGI (M14 melanoma) [µM] | TGI (SNB-75 CNS) [µM] | TGI (MOLT-4 leukemia) [µM] | TGI (T-47D breast) [µM]
C=C(C)CC1=C(C(=S)NCCO[Si](C)(C)C(C)(C)C)C(OCC)(OCC)C1=O | 35.9 | 41.4 | 56.9 | 37.8 | > 100 | 34.4 | 35 | 36.8 | > 100 | 35.4
O=[N+]([O-])c1cccc2nc3ccccc3c(NCCC[N+]3([O-])CCCCC3)c12 | > 58.6 | 4.58 | 2.4 | 2.16 | > 36.5 | 0.354 | 2.95 | 1.4 | > 100 | 4.9
O=C1CCC2=C(CCC2)N1CCc1ccc2c(c1)OCO2 | > 100 | > 100 | > 100 | > 100 | > 100 | > 100 | > 100 | > 100 | > 100 | > 100
CC(C)OC(=O)c1ccc(CCC2=CC(=O)C(Br)=CC2=O)cc1 | 27.1 | > 100 | 30.8 | 35.5 | 5.06 | 41.7 | 31.2 | 32.5 | 14 | 45
N#CC1N(C(=O)c2ccc(F)cc2)c2ccccc2N1C(=O)c1ccc(F)cc1 | > 100 | > 100 | > 100 | > 100 | 87.2 | > 100 | > 100 | > 100 | 82.8 | > 100
O=C(c1ccc(Cl)cc1)N(Cc1cccnc1)C(=S)N(Cc1cccnc1)C(=O)c1ccc(Cl)cc1 | 98.4 | > 100 | 47.4 | 50.4 | > 100 | 49 | 59.7 | > 100 | > 100 | > 100
Cc1cccc2c(N)c3cccc(C(=O)NCC[N+](C)(C)Cc4sc(N5CCOCC5)nc4[N+](=O)[O-])c3nc12 | 35.7 | 6.19 | 3.78 | 10 | 26.9 | 45.3 | 15 | 22.7 | > 100 | > 100
O=C1c2ccccc2C2(c3ccc(Cl)cc3)NCc3ccccc3CN12 (stereo not given) | 78.1 | 80.9 | 29.7 | 29.8 | 86.2 | 29.5 | 34 | > 100 | 91.7 | 49.9
c1ccc([C@H]2CN3CCSC3=N2)cc1 | > 100 | > 100 | > 100 | > 100 | > 100 | > 100 | > 100 | > 100 | > 100 | > 100
CC(=O)NC1C(OCc2ccccc2)OC(CO)C(O)C1OCC(=O)NC(C)C(=O)NC(CCC(=O)NCCCCCC(=O)Nc1ccc2c(c1)CN1C(=O)c3ccccc3C1=N2)C(N)=O (stereo not given) | > 100 | > 100 | > 100 | > 100 | > 100 | > 100 | > 100 | > 100 | > 100 | > 100
COc1ccc2[nH]c(C(=O)N3CC(CCl)c4ccc([N+](=O)[O-])cc43)cc2c1 (stereo not given) | > 100 | > 100 | > 100 | > 100 | > 100 | > 100 | > 100 | > 88.7 | > 100 | > 100
COC(=O)C[C@H](COCc1ccccc1)NC(=O)C[C@H](COCc1ccccc1)NC(=O)C[C@H](COCc1ccccc1)NC(=O)OC(C)(C)C | > 100 | > 100 | > 100 | > 100 | > 100 | > 100 | > 100 | 38 | > 100 | > 100
O=C(CCc1cc(O)cc(O)c1)NCCc1ccc(O)c(O)c1 | > 100 | > 100 | > 100 | > 100 | 56.1 | > 100 | > 100 | > 100 | > 100 | > 100
O=C(NN=C1CCCCC1)Nc1ccccc1Cl | > 100 | > 100 | > 100 | > 100 | > 100 | 91.7 | > 100 | 29.6 | > 100 | > 100
O=C1C=CC2(O[C@@H](Cc3ccccc3)[C@H](Cc3ccccc3)O2)C(SC(=O)c2ccccc2)C1 (stereo not given in full) | 1.87 | 8.04 | 1.46 | 3.04 | 1.15 | 3.46 | 2.99 | 3.41 | 0.651 | 11.3
